Where “and” joins values, the source holds several entries; their conditions need not be identical. Equal entries are not always repeated. Marks after values point to notes of the source that are not given here. Each block holds one compound with its values, some of them ahead of it.
How the values were obtained:
Type in all cases: cell-based
GPR174 [1] = target: T1, GPR174 (Homo sapiens, UniProt Q9BXC1); assay: Cellular redistribution assay (CRA) for GPR174
From the text: One method for identifying compounds capable of modulating a receptor is using a cellular redistribution assay (“CRA”). Exemplary CRA methods are found in U.S. Pat. No. 7,309,576 issued to O'Dowd et al. and in O'Dowd et al., J. Biomol. Screen. 12:175-85,2007. […] Incorporation of the NLS alters the cellular localization of the GPCR, such that the majority of the NLS-modified receptor is present in the cell interior. An NLS-modified GPCR, when interacting with a functionally active compound, is mostly localized on the cell surface. Thus, it becomes possible to identify receptor modulators without knowledge of the endogenous ligand or a surrogate ligand.
The inventors have identified a number of compounds that inhibit GPR174 using a CRA assay similar to that described in U.S. Pat. No. 7,309,576 and in O'Dowd et al., J. Biomol. Screen. 12:175-85, 2007. These compounds are described in detail below.
(§1) The inventors used a CRA similar to that described in U.S. Pat. No. 7,309,576 and O'Dowd et al., J. Biomol. Screen. 12:175-85, 2007 to identify compounds that are capable of interacting with GPR174 using a library of approximately 370,000 chemical entities. Briefly described, the CRA assay described in U.S. Pat. No. 7,309,576 involves artificially inserting a NLS into the dopamine D1 receptor (DRD1), which allows the receptor to traffic from the cell membrane to the cell interior, and that the binding of antagonists to the receptor retained the receptor at the cell surface, while removal of the ligand allowed the receptor to continue to internalize from the cell surface. Both antagonists and agonists that selectively bound the receptor retained the receptor on the plasma membrane. GPR174 constructs were generated for use in a CRA-based compound screening assay. From this screen, the inventors initially identified compounds of formula I-VI, as described herein and included in Table 1.
Target sequence in this assay (Q9BXC1 1-292 limits assumed): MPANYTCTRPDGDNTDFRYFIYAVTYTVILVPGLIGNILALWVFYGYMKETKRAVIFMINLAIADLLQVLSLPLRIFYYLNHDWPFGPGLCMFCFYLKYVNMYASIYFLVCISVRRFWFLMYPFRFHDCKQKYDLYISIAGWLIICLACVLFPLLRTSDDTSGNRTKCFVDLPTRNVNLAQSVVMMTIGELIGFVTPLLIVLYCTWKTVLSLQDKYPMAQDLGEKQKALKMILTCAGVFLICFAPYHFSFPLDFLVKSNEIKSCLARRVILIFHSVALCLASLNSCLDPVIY

GPR174 [2] = target: T1, GPR174; assay: CRE-Luc reporter Gs signaling assay with GPR174; parameters: host or cells: HEK293 or CHO cell lines (ATCC); settings: for Human GPR174 CRE Activity: nature of the compound (IA, antagonist, NM) / Fold decrease in Gs signaling activity / EC50: pCRE-Luc reporter; for Gs pathway in the presence of GPR174 (CRE-Luc reporter): increasing concentrations of compound; for EC50: multiple values = separate experiments
Target sequence in this assay (Q9BXC1 whole entry): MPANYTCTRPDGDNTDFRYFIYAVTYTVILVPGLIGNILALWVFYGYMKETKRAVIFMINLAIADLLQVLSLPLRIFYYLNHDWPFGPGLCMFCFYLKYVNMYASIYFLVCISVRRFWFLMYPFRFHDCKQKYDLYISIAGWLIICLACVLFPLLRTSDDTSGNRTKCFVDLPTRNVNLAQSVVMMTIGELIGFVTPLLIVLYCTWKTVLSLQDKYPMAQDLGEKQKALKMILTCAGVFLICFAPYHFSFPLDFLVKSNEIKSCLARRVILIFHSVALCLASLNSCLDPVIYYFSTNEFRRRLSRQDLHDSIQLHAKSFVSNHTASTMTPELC

CHRM1 = assay: CRA against CHRM1
From the text: as §1
The inventors also sought to validate that the compounds identified using the CRA are modulatory compounds. To this end, the above-described CRA was used to screen a library for compounds that interact with three control non-orphan receptors, and the results of this screen were compared to the results of screening the same library for compound that were identified using a Fluorometric Imaging Plate Reader (FLIPR) assay, a conventional technique commonly used to identify compounds interacting with non-orphan GPCRs signaling through Ca^++. Three non-orphan GPCRs—Muscarinic acetylcholine receptor M1 (CHRM1), Adrenergic receptor alpha 1a (ADRA1a), and Neuropeptide S receptor (NPSR)—were screened against a 10,000-compound GPCR-focused library. Thirty interacting compound “hits” were identified using the CRA, and eighty-one hits were identified using the FLIPR for the CHRM1 receptor; 9 CRA hits and 29 FLIPR hits for the NPS receptor were identified; and 110 CRA hits and 110 FLIPR hits for ADRA1a.
In addition, the CRA can also provide the relative potencies of compounds against the target receptor.

human PBMC = assay: IL-2 in supernatants of human PBMC stimulated with anti-CD3 and anti-CD28, ELISA; settings: human PBMC donor 8, 24 hours post-stimulation; compound 10 1 μM, ZM-241385 0.1 μM, APCP 10 μM; FIG. 71
Description: Human PBMCs, obtained from a human volunteer donor (donor 8), were dispensed in X-vivo15 media (Lonza) supplemented with Glutamax, penicillin and streptomycin, at density of 1×10^6 cells/well in a 96-well flat-bottom plate and were cultured in quadruplicate for 3 hours in the presence of:
GPR174 inhibitory compound 10 (1 μM);
CD73 inhibitory compound, adenosine 5′-(a,p-methylene)diphosphate sodium salt (APCP, Tocris, 10 μM);
Combinations of the above agents;
After which 1 μg/mL anti-CD3 antibody (UCHT1) and 0.1 μg/mL anti-CD28 antibody (CD28.2) were added to activate T cells. Supernatants from these cells were collected at 24 hours post-stimulation and the levels of IL-2 were determined by ELISA.

mouse splenocytes = assay: IL-2 levels in supernatants of cultured mouse splenocytes (WT or GPR174-KO) stimulated with anti-CD3 and anti-CD28, MSD platform; settings: 2 days
Description: To make single cell suspensions from mouse splenocytes, spleens were cut into 1-2 mm^3 pieces with a razor blade and incubated at 37° C. with 10 μg/mL DNase and 1 mg/mL Collagenase D with agitation for 90 min. Spleen fragments and cells were then pressed through a nylon screen, and the resulting cell suspension was washed. In 96-well flat-bottom plates, splenocytes were cultured in quadruplicate with the following conditions for 2 days, after which supernatants were tested for cytokine levels with the MSD platform.
Anti-CD3 (clone 2C11; 0.1 μg/mL)
GPR174 inhibitor (compound 10, 1 μM or 0.3 μM, or DMSO vehicle control)
GPR174 inhibitor (compound 6, 0.3 μM, or DMSO vehicle control)
Adenosine receptor agonist (NECA, 0.1 μM)

human PBMCs = assay: Th1 cytokines in supernatants of stimulated human PBMC, GPR174 inhibitor with adenosine pathway inhibitors (Examples 15, 18-22); settings: donor 7
Description: Human PBMCs, obtained from a human volunteer donor, were dispensed at density of 1×10^6 cells/well in a 96-well flat-bottom plate and were stimulated in triplicate with 1 μg/mL anti-CD3 antibody (UCHT1) and 0.1 μg/mL anti-CD28 antibody (CD28.2) in the presence of:
Supernatants from these cells were collected at 24 hours post-stimulation and the levels of IFN-γ were determined by ELISA assay. Statistical analysis was carried out using one-way ANOVA with Tukey's post-hoc multiple comparison's correction.
Human PBMCs, obtained from a human volunteer donor (donor 1), were dispensed in X-vivo15 media (Lonza) supplemented with Glutamax, penicillin and streptomycin, at density of 1×10^6 cells/well in a 96-well flat-bottom plate and were stimulated with 1 μg/mL anti-CD3 antibody (UCHT1) and 0.1 μg/mL anti-CD28 antibody (CD28.2) in the presence of:
Supernatants from these cells were collected at 24 hours post-stimulation and the levels of IFN-γ, IL-2 and TNF were determined by ELISA assays.
Human PBMCs, obtained from two individual human volunteer donors (donor 2 and donor 3), were dispensed at density of 1×10^6 cells/well in a 96-well flat-bottom plate and were stimulated with 1 μg/mL anti-CD3 antibody (UCHT1) and 0.1 μg/mL anti-CD28 antibody (CD28.2) in the presence of:
Human PBMCs, obtained from twelve individual human volunteer donors were dispensed at density of 1×10^6 cells/well in a 96-well flat-bottom plate and were stimulated in triplicate with 1 μg/mL anti-CD3 antibody (UCHT1) and 0.1 μg/mL anti-CD28 antibody (CD28.2) in the presence of:
A total of 44 experiments using PBMC from 12 healthy donors were tested (9 donors for GM-CSF), with each donor tested in 1 to 8 separate experiments, depending on the donor (1 to 4 experiments each for GM-CSF). […] Cytokines were detected in supernatants with the Legendplex (Biolegend) or the MSB (MesoScale) platforms. […] One-way ANOVA with Tukey's post-hoc multiple comparisons correction was performed to identify significant differences (FC, mean fold change; ****, p<0.0001, ***, p<0.001; **, p<0.01; *, p<0.05, ns, not significant).
Human PBMC (1×10^6 cells/well in a 96-well flat-bottom plate) obtained from donor 3 and donor 6 were stimulated with 1 μg/mL anti-CD3 antibody (UCHT1) and 0.1 μg/mL anti-CD28 antibody (CD28.2) in the presence of:
Supernatants from these cells were collected at 24 hours post-stimulation and the levels of IFN-γ, IL-2, and TNF were determined with the MSD platform (MesoScale Discovery).
Human PBMC (1×10^6 cells/well in a 96-well flat-bottom plate) obtained from donor 7 were stimulated with 1 μg/mL […] (UCHT1) and 0.1 μg/mL anti-CD28 antibody (CD28.2) in the presence of:
Supernatants from these cells were collected at 24 hours post-stimulation and the levels of IFN-γ, IL-2, TNF and GM-CSF were determined with the MSD platform (MesoScale Discovery).
Supernatants from these cells were collected at 24 hours post-stimulation and the levels of IFN-γ, IL-2 and TNF were determined with the MSD platform (MesoScale Discovery).

ADBR2 = target: T2, ADBR2 (Homo sapiens, UniProt P07550); assay: CRE-Luc reporter assay with control receptor ADBR2
T2 construct: host or cells: HEK293 or CHO cell lines (ATCC)
Description: The DNA/lipofectamine 2000 mix (3000 μL) was incubated at room temperature for 30 minutes and then added into a 10 cm culture dish (Corning, NY) containing 70-90% confluent cultured cells, (HEK293 or CHO cell lines (ATCC, VA)), in 15 mL of media. […] The cells were further incubated at 37° C. for various times. The media were removed and the cells lysed.
Compounds were tested in the reporter system with increasing concentrations of GPR174-interacting compounds.
The DNA/lipofectamine 2000 mix (3000 μL) was incubated at room temperature for 30 minutes and then added into a 10 cm culture dish (Corning, NY) containing 70-90% confluent cultured cells, typically HEK293 or CHO cell lines (ATCC, VA), in 15 mL of media. […] Media (26 mL) were added to the detached cells and 120 μL of transfected cells were transferred to each well on a 96-well plate. Increasing concentration of each compound in DMSO (1.2 μl) was added to the cells after plating into the 96-well plate. The cells were further incubated at 37° C. for various times. The media were removed, and the cells lysed.
ADBR2 is a GPCR, like GPR174, that activates the Gs signaling pathway.

[3] = high and low concentrations, ZM 0.1 μM
[4] = no ZM, 0.3 μM (compound 20: 3 μM)
[5] = no ZM, 1 μM (compound 20: 10 μM)
[6] = with ZM-241385 0.1 μM, 0.3 μM (compound 20: 3 μM)
[7] = with ZM-241385 0.1 μM, 1 μM (compound 20: 10 μM), label ZM = ZM alone

T2 sequence (P07550 whole entry): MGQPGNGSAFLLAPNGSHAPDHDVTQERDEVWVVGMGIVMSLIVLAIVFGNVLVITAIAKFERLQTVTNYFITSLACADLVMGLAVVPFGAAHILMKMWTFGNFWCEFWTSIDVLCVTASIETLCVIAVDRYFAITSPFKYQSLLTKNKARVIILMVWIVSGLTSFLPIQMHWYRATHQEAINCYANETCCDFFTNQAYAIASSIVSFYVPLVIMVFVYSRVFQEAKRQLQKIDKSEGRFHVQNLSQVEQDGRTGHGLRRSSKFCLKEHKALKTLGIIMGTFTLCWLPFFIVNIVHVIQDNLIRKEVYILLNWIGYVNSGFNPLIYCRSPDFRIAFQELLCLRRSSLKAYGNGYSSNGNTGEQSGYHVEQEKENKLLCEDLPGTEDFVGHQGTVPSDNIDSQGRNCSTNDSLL

dose-response curve against GPR174 in the CRA (FIG. 5A) (GPR174 [1]): show a dose-response curve
Human GPR174 CRE Activity: nature of the compound (IA, antagonist, NM) (GPR174 [2]): Antagonist or allostetic modulator
Compound: CC(=O)c1ccc(N2CCN(C(=O)c3ccc(F)cc3)CC2)c(F)c1 [compound 3]
activity against CHRM1 in the CRA (FIG. 5B) (CHRM1): do not show any activity

Compound: Nc1nc(NCCc2ccc(O)cc2)nc2nc(-c3ccco3)nn12 [ZM-241385]
increase of IL-2 levels (human PBMC): 1.4 fold
increase of IL-2 levels (mouse splenocytes; GPR174-KO splenocytes, no NECA, ZM-241385 0.1 μM, FIG. 68B): 1.3 fold
increase of IL-2 levels (mouse splenocytes; WT splenocytes, NECA 0.1 μM, compounds 10, 6 0.3 μM, ZM-241385 0.2 μM, FIG. 69): 2 fold
increase of IL-2 levels (mouse splenocytes; WT splenocytes, no NECA, compound 10 1 μM, ZM-241385 0.1 μM, FIG. 68A): 1.3 fold

Compound: Cc1ccccc1Nc1nnc(-c2ccc(C)c(S(N)(=O)=O)c2)c2ccccc12 [compound 20]
dose-response curve against GPR174 in the CRA (FIG. 5A) (GPR174 [1]): show a dose-response curve
Human GPR174 CRE Activity: nature of the compound (IA, antagonist, NM) (GPR174 [2]): Antagonist or allosteric modulator
synergy with ZM on GM-CSF (greater than the sum of the increases with each inhibitor alone) (human PBMCs; [3]): synergized with ZM
synergy with ZM on IFN-γ (greater than the sum of the increases with each inhibitor alone) (human PBMCs; [3]): synergized with ZM
synergy with ZM on IL-2 (greater than the sum of the increases with each inhibitor alone) (human PBMCs; [3]): synergized with ZM
synergy with ZM on TNF (greater than the sum of the increases with each inhibitor alone) (human PBMCs; [3]): synergized with ZM
GM-CSF, ratio relative to vehicle control (human PBMCs; [4]): 2.7*
IFN-γ, ratio relative to vehicle control (human PBMCs; [4]): 1.2
IL-2, ratio relative to vehicle control (human PBMCs; [4]): 1.3
TNF, ratio relative to vehicle control (human PBMCs; [4]): 1.4*
GM-CSF, ratio relative to vehicle control (human PBMCs; [5]): 2.3*
IFN-γ, ratio relative to vehicle control (human PBMCs; [5]): 1.5*
IL-2, ratio relative to vehicle control (human PBMCs; [5]): 1.4*
TNF, ratio relative to vehicle control (human PBMCs; [5]): 1.5*
GM-CSF, ratio relative to vehicle control (human PBMCs; [6]): 4.6*
IFN-γ, ratio relative to vehicle control (human PBMCs; [6]): 1.8*
IL-2, ratio relative to vehicle control (human PBMCs; [6]): 1.6*
TNF, ratio relative to vehicle control (human PBMCs; [6]): 1.9*
GM-CSF, ratio relative to vehicle control (human PBMCs; [7]): 4.4*
IFN-γ, ratio relative to vehicle control (human PBMCs; [7]): 2.1*
IL-2, ratio relative to vehicle control (human PBMCs; [7]): 2.1*
TNF, ratio relative to vehicle control (human PBMCs; [7]): 2.4*
activity against CHRM1 in the CRA (FIG. 5B) (CHRM1): do not show any activity

dose-response curve against GPR174 in the CRA (FIG. 5A) (GPR174 [1]): show a dose-response curve
EC50 (GPR174 [1]; multiple values = separate experiments): 2100 nM
Gs pathway in the presence of GPR174 (CRE-Luc reporter) (GPR174 [2]): inhibited
Fold decrease in Gs signaling activity (GPR174 [2]): 2.9 fold
EC50 (GPR174 [2]): 400 nM and 800 nM
Gs pathway in the presence of ADBR2 (CRE-Luc reporter) (ADBR2): did not inhibit
Compound: CCOC(=O)N1CCN(c2cc(N3CCC(C)CC3)c(F)cc2[N+](=O)[O-])CC1 [compound 1]
activity against CHRM1 in the CRA (FIG. 5B) (CHRM1): do not show any activity

Compound: CC(=O)N1CCN(c2cc(N3CCCCC3)c(F)cc2[N+](=O)[O-])CC1 [compound 2]
dose-response curve against GPR174 in the CRA (FIG. 5A) (GPR174 [1]): show a dose-response curve
Gs pathway in the presence of GPR174 (CRE-Luc reporter) (GPR174 [2]): inhibited
Fold decrease in Gs signaling activity (GPR174 [2]): 1.7 fold
EC50 (GPR174 [2]): 400 nM and 300 nM
Gs pathway in the presence of ADBR2 (CRE-Luc reporter) (ADBR2): did not inhibit
activity against CHRM1 in the CRA (FIG. 5B) (CHRM1): do not show any activity

Compound: adenosine 5′-(a,p-methylene)diphosphate sodium salt [APCP]
increase of IL-2 levels (human PBMC): 1.5 fold

Source: patent US20200345725A1, “Methods and Compositions for Treating Cancer” (Omeros Corporation, priority 2019, published 2020)
